Holding throughout (format): biochemical
Assay [1] addresses T1, Factor XIa (Homo sapiens, UniProt P03951). As to the kind of experiment: Factor XIa inhibition FLINT assay with fluorophore-quencher peptide substrate 5Fam-[…]-K5Tamra (end point EP or kinetic KIN reads). The following applies: fit to a substrate inhibition model.
For the next assay, the target named is human plasma kallikrein (Homo sapiens, UniProt P03952). Nature of the assay: Kallikrein inhibition FLINT assay with quenched AMC peptide substrate Z-Gly-Pro-Arg-AMC (end point EP or kinetic KIN reads). To be noted: end point read at 30 min; read-out: Kallikrein (EP) IC50. The method in brief: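 Enzyme and compound were preincubated 30 min before adding 50 μM AMC substrate in pH 7.5 Tris/NaCl/CaCl2/BSA/CHAPS buffer. AMC release was read at 30 min endpoint or every 5 min.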

In assay [2] the target is T1, Factor XIa. As to the kind of experiment: Factor XIa inhibition FLINT assay with fluorophore-quencher peptide substrate 5Fam-[…]-K5Tamra (end point EP or kinetic KIN reads). The following applies: end point read at 30 min; read-out: FXIa (EP) IC50. From the text: Factor XIa inhibition assay utilizing a fluorophore-quencher pair peptide substrate A fluorescence intensity (FLINT) based assay was used to monitor inhibition of Factor XIa. The peptide substrate, 5Fam-[…]-K5Tamra (purchased from New England Peptide) was chosen based on the FXI sequence. Conversion of zymogen FXI to its activated form, FXIa, occurs by proteolytic cleavage by […] at two sites, Arg146 and Arg180. The custom peptide used in this assay was based on the Arg146 cleavage site of FXI. The peptide substrate was designed with a fluorophore-quencher pair, where the fluorescence is quenched until FXIa cleaves the 8-mer peptide after the Arg residue.
Test compound(s) were run in an 11-point, 3-fold serial dilution with a final top compound concentration of 100 nM. Final DMSO in assay was 2%. FXIa was preincubated with compound for 30-minutes and then substrate was added to initiate the reaction. The assay was run with either end point (EP) reads at 30 min or kinetic (KIN) reads at 5 min intervals over 30 minutes. […] More specifically, the assay was run as follows: • 100 nL of 0.01 mM test compound was dispensed into black 384-well non-binding Greiner BioOne 784900 plate for 0.1 μM final concentration; • 5 μL of 1× assay buffer was dispensed to column 24 (low control) and 5 μL 2× Factor XIa solution was dispensed to columns 1-23 (column 23 high control); • the plate was centrifuged with a “cover” plate at 500 rpm for 1 min • the plate was pre-incubated for 30 minutes at room temperature with plate covered; • 5 μL of 2×5Fam-[…]-K5Tamra peptide substrate was dispensed into the entire plate, columns 1-24; • the plate was centrifuged with a “cover” plate at 500 rpm for 1 min; • the plate was read monitoring fluorescence intensity on the BMG PHERAStar at room temperature, using fluorescence module 485 nm/520 nm.
Percent inhibition (IC50) curves were generated per compound tested, and data was analyzed using a 4-parameter logistic fit using GeneData Screener. The relative fluorescence unit (RFU) values were normalized to percent inhibition using the following equation: % inhibition=((HC−LC)−(compound−LC)/(HC−LC))*100
An 11-point dose response curve for the test compound(s) was generated using GENDATA to determine IC50 value based on the following equation: Y=Bottom+(Top−Bottom)/(1+10^((log IC50−X)*HillSlope))
Results listed in columns with […] designation were measured using endpoint reads where a single fluorescence reading was measured for each well at a 30 min timepoint.

*1 amine or outer side, *2 acyl side, *3 side chain or, on linkers, in order; H or OH if unused. The star is where a group is joined. Lys(5-TAMRA) = CN(C)c1ccc2c(-c3ccc(C(=O)NCCCC[C@H](N[*:1])C(=O)[*:2])cc3C(=O)[O-])c3ccc(N(C)C)cc3[o+]c2c1; 5FAM = O=C1OC2(c3ccc(O)cc3Oc3cc(O)ccc32)c2ccc(C(=O)*)cc21

T1 sequence (P03951 388-625 limits assumed): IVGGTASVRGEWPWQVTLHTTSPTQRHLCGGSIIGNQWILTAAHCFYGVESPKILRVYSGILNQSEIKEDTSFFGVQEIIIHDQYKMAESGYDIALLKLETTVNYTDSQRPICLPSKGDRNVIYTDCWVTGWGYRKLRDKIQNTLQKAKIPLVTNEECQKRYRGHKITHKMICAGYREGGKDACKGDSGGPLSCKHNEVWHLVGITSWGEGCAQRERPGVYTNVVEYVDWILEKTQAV
T1 sequence (P03951 19-387 partner limits assumed): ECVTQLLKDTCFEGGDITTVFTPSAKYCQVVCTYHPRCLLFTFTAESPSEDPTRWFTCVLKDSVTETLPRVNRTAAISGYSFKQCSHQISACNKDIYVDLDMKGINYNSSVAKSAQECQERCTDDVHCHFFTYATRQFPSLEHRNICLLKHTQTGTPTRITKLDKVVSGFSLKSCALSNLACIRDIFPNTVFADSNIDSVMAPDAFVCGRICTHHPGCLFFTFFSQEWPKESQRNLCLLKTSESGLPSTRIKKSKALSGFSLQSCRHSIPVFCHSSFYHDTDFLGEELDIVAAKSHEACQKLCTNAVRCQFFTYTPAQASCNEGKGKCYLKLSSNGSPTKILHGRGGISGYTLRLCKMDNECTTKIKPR
human plasma kallikrein, sequence (P03952 391-638 limits assumed): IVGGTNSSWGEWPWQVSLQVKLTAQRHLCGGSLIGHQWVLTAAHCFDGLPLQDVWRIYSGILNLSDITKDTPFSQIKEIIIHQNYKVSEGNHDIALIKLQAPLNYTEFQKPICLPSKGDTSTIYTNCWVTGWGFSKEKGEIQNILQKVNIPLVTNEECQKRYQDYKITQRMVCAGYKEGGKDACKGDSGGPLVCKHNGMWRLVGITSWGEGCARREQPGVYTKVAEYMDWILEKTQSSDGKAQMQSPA
human plasma kallikrein, sequence (P03952 20-390 partner limits assumed): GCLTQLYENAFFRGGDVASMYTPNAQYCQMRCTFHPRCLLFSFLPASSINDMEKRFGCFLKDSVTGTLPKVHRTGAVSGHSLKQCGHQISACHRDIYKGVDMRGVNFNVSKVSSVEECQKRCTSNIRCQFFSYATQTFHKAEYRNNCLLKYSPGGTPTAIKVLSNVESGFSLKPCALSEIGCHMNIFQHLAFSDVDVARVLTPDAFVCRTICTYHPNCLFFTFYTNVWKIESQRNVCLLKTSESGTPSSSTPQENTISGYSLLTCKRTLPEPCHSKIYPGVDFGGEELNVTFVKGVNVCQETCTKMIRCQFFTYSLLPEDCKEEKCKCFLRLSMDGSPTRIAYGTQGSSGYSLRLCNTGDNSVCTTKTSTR

As a reminder, the Km is the substrate concentration at which the rate is half of its maximum. As a reminder, the kcat is the maximal rate divided by the concentration of active sites. With “5Fam-KLTRAETV-K5Tamra (5FAM-KLTRAETV-{Lys(5-TAMRA)}; SMILES CC(C)C[C@H](NC(=O)[C@H](CCCCN)NC(=O)c1ccc2c(c1)C(=O)OC21c2ccc(O)cc2Oc2cc(O)ccc21)C(=O)N[C@H](C(=O)N[C@@H](CCCNC(=N)N)C(=O)N[C@@H](C)C(=O)N[C@@H](CCC(=O)O)C(=O)N[C@H](C(=O)N[C@H](C(=O)N[C@@H](CCCCNC(=O)c1ccc(-c2c3ccc(N(C)C)cc3[o+]c3cc(N(C)C)ccc23)c(C(=O)[O-])c1)C(=O)O)C(C)C)[C@@H](C)O)[C@@H](C)O) ["The peptide substrate ; (purchased from New England Peptide)", "designed with a fluorophore-quencher pair", based on the Arg146 cleavage site of FXI]”, in the assay with Factor XIa [1] (peptide substrate of FXIa), the Km stood at 12.4 µM and the kcat was found to be 0.86 s⁻¹. Also, the Ki in the assay with Factor XIa [1] (substrate inhibition constant) was 61.6 µM.

As a reminder, the IC50 is the midpoint of a concentration-inhibition curve. With `CN1Cc2cc(-c3cnn(C(CC4CC4)c4ccc(-c5cc(Cl)ccc5-n5cnnn5)c[n+]4[O-])c3)ccc2C1=O` (centres unmarked) [Example P12], the figures for the IC50 on human plasma kallikrein and on Factor XIa [2] were 370 nM and 71.7 nM, respectively.

For `COC(=O)Nc1ccc(-c2cnn(C(CC3CC3)c3ccc(-c4cc(Cl)ccc4-n4cc(Cl)nn4)c[n+]3[O-])c2)cc1` (centres unmarked) [Example P14], the figures for the IC50 at human plasma kallikrein and on Factor XIa [2] were 966 nM and 94.4 nM, respectively.

For `CN1CCc2cc(-c3cnn(C(CC4CC4)c4ccc(-c5cc(Cl)ccc5-n5cnnn5)c[n+]4[O-])c3)ccc2C1=O` (centres unmarked) [Example P15], the IC50 at human plasma kallikrein was found to be 598 nM; on Factor XIa [2], 55.6 nM.

Consider `O=C1OCc2cc(-c3cnn(C(CC4CC4)c4ccc(-c5cc(Cl)ccc5-n5cnnn5)c[n+]4[O-])c3)ccc21` (centres unmarked) [Example P16], for which the IC50 at human plasma kallikrein amounted to 401 nM; at Factor XIa [2] it was 56.1 nM.

Turning to `CS(=O)(=O)NC(=O)c1ccc(-c2cnn(C(CC3CC3)c3ccc(-c4cc(Cl)ccc4-n4cnnn4)c[n+]3[O-])c2)cc1` (centres unmarked) [Example P18], the IC50 at human plasma kallikrein amounted to 396 nM; at Factor XIa [2] it was 3.1 nM.

On to `Nc1ccc(-c2cnn(C(CC3CC3)c3ccc(-c4cc(Cl)ccc4-n4cnnn4)c[n+]3[O-])c2)c(Cl)n1` (centres unmarked) [Example P19], for which the IC50 worked out at 135 nM on human plasma kallikrein and 3.4 nM on Factor XIa [2].

On to `Nc1ccc(-c2cnn(C(CC3CC3)c3ccc(-c4c(-n5cnnn5)ccc(Cl)c4F)c[n+]3[O-])c2)cc1` (centres unmarked) [Example P21], for which the IC50 at human plasma kallikrein turned out to be 166 nM; at Factor XIa [2], 10.1 nM.

For the molecule `[O-][n+]1cc(-c2cc(Cl)ccc2-n2cnnn2)ccc1C(Cc1ccc(F)cc1)n1cc(-c2ccc(F)cc2)cn1` (centres unmarked) [Example P22], the IC50 at human plasma kallikrein is 44.2 nM; on Factor XIa [2], 10 nM.

On to `CC(=O)Nc1ccc(-c2cnn(C(CC3CC3)c3ccc(-c4c(-n5cnnn5)ccc(Cl)c4F)c[n+]3[O-])c2)cc1` (centres unmarked) [Example P23], for which the IC50 amounted to 66.1 nM on human plasma kallikrein and 4.4 nM at Factor XIa [2].

`Nc1ccc(-c2cnn(C(CC3CC3)c3ccc(-c4c(-n5cnnn5)ccc(Cl)c4F)c[n+]3[O-])c2)cn1` (centres unmarked) [Example P24]: the IC50 at human plasma kallikrein is 114 nM; at Factor XIa [2], 4.9 nM.

`Nc1ccc(-c2cnn(C(CC3CC3)c3ccc(-c4c(-n5cnnn5)ccc(Cl)c4F)c[n+]3[O-])c2)c[n+]1[O-]` (centres unmarked) [Example P25]: the IC50 on human plasma kallikrein came to 749 nM; at Factor XIa [2], 9 nM.

Take `COC(=O)Nc1ccc(-c2cnn(C(CC3CC3)c3c(F)cc(-c4c(-n5cnnn5)ccc(Cl)c4F)c[n+]3[O-])c2)cc1` (centres unmarked) [Example P30]: the results for the IC50 at human plasma kallikrein and at Factor XIa [2] were 57.3 nM and 3.3 nM, respectively.

As to `O=C(O)c1ccc(-c2cnn(C(c3cn(-c4ccccc4)nn3)c3ccc(-c4c(-n5cnnn5)ccc(Cl)c4F)c[n+]3[O-])c2)cc1` (centres unmarked) [Example P35], the IC50 was 800 nM on human plasma kallikrein and 169 nM on Factor XIa [2].

On to `COC(=O)Nc1ccc(-c2cnn(C(Cc3ccccc3)c3ccc(-c4cc(Cl)ccc4-n4cnnn4)c[n+]3[O-])c2)cc1` (centres unmarked) [Example P39], for which the results for the IC50 at human plasma kallikrein and at Factor XIa [2] were 25.8 nM and 3.8 nM, respectively.

For `COC(=O)Nc1ccc(-c2cnn(C(Cc3ccccc3)c3ccc(-c4cc(Cl)c(F)cc4-n4cnnn4)c[n+]3[O-])c2)cc1` (centres unmarked) [Example P46], the IC50 came to 341 nM at human plasma kallikrein and 21.5 nM on Factor XIa [2].

For `CC(N)c1ccc(-c2cnn(C(Cc3ccccc3)c3ccc(-c4cc(Cl)ccc4-n4cnnn4)c[n+]3[O-])c2)cc1` (centres unmarked) [Example P47], the IC50 was found to be 405 nM on human plasma kallikrein and 22.2 nM on Factor XIa [2].

As to `Nc1ccc(-c2cnn(C(Cc3ccccc3)c3ccc(-c4cc(Cl)ccc4-n4cnnn4)c[n+]3[O-])c2)c(Cl)n1` (centres unmarked) [Example P50], the IC50 was 46.5 nM on human plasma kallikrein and 3.5 nM on Factor XIa [2].

As to `COC(=O)Nc1ccc(-c2cnn(C(Cc3ccc(F)cc3)c3ccc(-c4cc(Cl)ccc4C#N)c[n+]3[O-])c2)cc1` (centres unmarked) [Example Q1], the half-inhibitory concentration (IC50) came to 355 nM on human plasma kallikrein and 621 nM at Factor XIa [2].

Regarding `O=C(O)c1ccc(-c2cnn(C(Cc3ccc(F)cc3)c3ccc(-c4cc(Cl)ccc4OCC(F)(F)F)c[n+]3[O-])c2)cc1` (centres unmarked) [Example Q2], the IC50 is 674 nM at human plasma kallikrein and 41 nM at Factor XIa [2].

Source of the values: patent US11814364B2, “Pyridine N-oxide derivatives useful as factor XIa inhibitors” (Janssen Pharmaceutica NV, priority 2021, dated 2023).
